Drawing on US20230151003A1, “COMPOUNDS AND METHODS OF USE” (Exelixis, Inc., priority 2020, published 2023), this text covers IC50 for 22 compounds.

Molecules are shown by their SMILES.

One test addresses Met (Homo sapiens, UniProt P08581). As to the kind of experiment: Met autophosphorylation ELISA in PC-3 cells. Format: cell-based. More on the design: endogenous in cells; host or cells: PC-3 prostate cancer cells (ATCC #CRL-1435). The conditions noted are these: Table 3 Cellular Activities, HGF-stimulated, phospho-Met ELISA, read-out: c-Met IC50. The procedure, abridged: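 Serum-starved (3 h) PC-3 cells pre-incubated 1 h with compound (8-point dose curve, 0.3% DMSO), then stimulated with 100 ng/mL recombinant human HGF for 10 min. Lysate phospho-Met (panTyr) measured by sandwich ELISA; IC50 from 4-parameter logistic fit, normalised to DMSO (100%) and reference-inhibitor (0%) controls.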

The target in the next test is T1, AXL (Homo sapiens, UniProt P30530).
T1 construct: endogenous in cells; host or cells: A-172 glioblastoma cells (ATCC #CRL-1620)
T1 sequence (P30530 26-894): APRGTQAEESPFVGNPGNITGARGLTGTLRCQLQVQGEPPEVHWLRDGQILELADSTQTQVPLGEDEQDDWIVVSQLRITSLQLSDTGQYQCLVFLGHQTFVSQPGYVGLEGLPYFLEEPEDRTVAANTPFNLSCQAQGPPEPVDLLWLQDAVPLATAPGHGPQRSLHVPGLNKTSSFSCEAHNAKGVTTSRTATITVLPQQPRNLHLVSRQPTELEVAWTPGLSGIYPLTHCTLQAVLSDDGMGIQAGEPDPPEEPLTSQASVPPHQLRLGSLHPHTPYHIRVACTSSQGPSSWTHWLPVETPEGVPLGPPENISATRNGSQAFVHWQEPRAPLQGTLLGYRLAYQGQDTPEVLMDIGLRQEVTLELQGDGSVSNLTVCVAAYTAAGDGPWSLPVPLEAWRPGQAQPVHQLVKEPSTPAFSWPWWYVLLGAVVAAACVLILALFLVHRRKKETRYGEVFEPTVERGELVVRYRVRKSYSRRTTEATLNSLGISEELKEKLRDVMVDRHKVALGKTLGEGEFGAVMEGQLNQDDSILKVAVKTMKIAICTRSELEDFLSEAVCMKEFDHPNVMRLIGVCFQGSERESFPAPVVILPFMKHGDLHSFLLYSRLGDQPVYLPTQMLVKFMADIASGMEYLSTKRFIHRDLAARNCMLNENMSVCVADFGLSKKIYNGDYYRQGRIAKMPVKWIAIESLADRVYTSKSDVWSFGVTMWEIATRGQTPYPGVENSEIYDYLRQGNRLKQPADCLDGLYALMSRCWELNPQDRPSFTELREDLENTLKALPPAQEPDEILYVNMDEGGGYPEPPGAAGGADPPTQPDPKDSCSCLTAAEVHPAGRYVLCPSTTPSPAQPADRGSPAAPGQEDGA
The experiment in a line: AXL autophosphorylation ELISA in A-172 cells. Format: cell-based. The note with it: Table 3 Cellular Activities, Gas6-stimulated, phospho-AXL ELISA. The procedure, abridged: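 A-172 glioblastoma cells serum-starved 24 h, treated 1 h with compounds (8-point dose curve, 0.3% DMSO), then stimulated with 1 μg/mL Gas6 for 15 min. Lysate phospho-AXL quantified by ELISA against a standard; IC50 from 4-parameter logistic fit, normalised to DMSO and reference-inhibitor controls.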
On the technique in general: An ELISA detects its analyte on a solid surface through an enzyme-linked reagent.

Sequence of Met (P08581 25-1390): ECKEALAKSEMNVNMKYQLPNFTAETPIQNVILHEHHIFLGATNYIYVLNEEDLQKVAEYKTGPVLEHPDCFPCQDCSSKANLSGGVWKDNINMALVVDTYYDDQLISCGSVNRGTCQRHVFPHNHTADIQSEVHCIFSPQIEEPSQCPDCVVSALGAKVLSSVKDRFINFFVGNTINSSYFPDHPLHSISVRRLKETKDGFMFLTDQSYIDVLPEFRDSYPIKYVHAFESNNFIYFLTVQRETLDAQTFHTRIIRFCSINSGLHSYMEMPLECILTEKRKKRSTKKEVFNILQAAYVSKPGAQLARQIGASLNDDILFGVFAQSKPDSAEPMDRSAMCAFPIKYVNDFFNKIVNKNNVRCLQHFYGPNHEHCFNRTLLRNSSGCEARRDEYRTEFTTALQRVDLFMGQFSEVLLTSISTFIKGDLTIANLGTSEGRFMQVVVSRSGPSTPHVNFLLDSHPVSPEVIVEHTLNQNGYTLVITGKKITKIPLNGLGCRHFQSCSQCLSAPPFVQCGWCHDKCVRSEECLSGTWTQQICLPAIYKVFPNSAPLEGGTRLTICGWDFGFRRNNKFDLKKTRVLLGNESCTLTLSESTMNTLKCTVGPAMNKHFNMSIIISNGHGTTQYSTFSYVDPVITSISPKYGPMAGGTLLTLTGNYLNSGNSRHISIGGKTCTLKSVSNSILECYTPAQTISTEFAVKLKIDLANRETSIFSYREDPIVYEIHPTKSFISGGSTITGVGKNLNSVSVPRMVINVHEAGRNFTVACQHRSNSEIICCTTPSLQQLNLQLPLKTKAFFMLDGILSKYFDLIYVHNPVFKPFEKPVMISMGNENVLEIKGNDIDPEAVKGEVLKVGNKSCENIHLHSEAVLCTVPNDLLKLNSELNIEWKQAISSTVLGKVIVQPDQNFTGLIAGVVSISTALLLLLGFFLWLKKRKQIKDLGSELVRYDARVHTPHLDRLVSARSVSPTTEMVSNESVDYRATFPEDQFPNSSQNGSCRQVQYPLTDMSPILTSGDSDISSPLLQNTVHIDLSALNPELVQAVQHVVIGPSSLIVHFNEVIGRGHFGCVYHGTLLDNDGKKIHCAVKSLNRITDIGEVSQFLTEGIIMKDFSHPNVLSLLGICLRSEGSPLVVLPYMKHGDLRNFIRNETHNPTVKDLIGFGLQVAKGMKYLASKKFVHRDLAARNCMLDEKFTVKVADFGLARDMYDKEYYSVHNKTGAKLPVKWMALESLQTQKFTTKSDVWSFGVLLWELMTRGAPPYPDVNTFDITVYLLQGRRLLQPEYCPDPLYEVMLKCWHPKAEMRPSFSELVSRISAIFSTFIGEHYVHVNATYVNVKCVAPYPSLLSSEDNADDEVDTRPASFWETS

Turning to `COc1cc2nccc(Oc3ccc(NC(=O)c4cnc(C)c(-c5ccc(C)s5)c4O)cc3F)c2nc1OC` [Compound 94, N-[4-[(6,7-Dimethoxy-1,5-naphthyridin-4-yl)oxy]-3-fluoro-phenyl]-4-hydroxy-6-methyl-5-(5-methyl-2-thienyl) pyridine-3-carboxamide], the IC50 on Met and against AXL was at most 100 nM throughout.
Turning to `COc1cc2nccc(Oc3ccc(NC(=O)c4c(C)n(C)c(C)c(-c5ccco5)c4=O)cc3)c2nc1OC` [Compound 164, N-[4-[(6,7-Dimethoxy-1,5-naphthyridin-4-yl)oxy]phenyl]-5-(furan-2-yl)-1,2,6-trimethyl-4-oxopyridine-3-carboxamide], the IC50 on Met and against AXL was at most 100 nM each time.
As for `COc1cnc2c(Oc3ccc(NC(=O)c4cn(CCF)c(C)c(-c5cccs5)c4=O)cc3F)ccnc2c1` [Compound 331, 1-(2-Fluoroethyl)-N-[3-fluoro-4-[(7-methoxy-1,5-naphthyridin-4-yl)oxy]phenyl]-6-methyl-4-oxo-5-thiophen-2-ylpyridine-3-carboxamide], the IC50 at Met and against AXL was at most 100 nM each time.
For the compound `COc1cnc2c(Oc3ccc(NC(=O)c4cn(CCF)c(C)c(-c5ccc(C)s5)c4=O)cc3F)ccnc2c1` [Compound 329, 1-(2-Fluoroethyl)-N-[3-fluoro-4-[(7-methoxy-1,5-naphthyridin-4-yl)oxy]phenyl]-6-methyl-5-(5-methylthiophen-2-yl)-4-oxopyridine-3-carboxamide], the IC50 on Met and at AXL was at most 100 nM in each case.
Consider `COc1cc2nccc(Oc3ccc(NC(=O)c4c(C)nc(C)c(-c5cc(C(F)(F)F)nn5C)c4O)cc3F)c2nc1OC` [Compound 138], for which the concentration for half-maximal inhibition (IC50) on Met and against AXL was at most 100 nM in each case.
On to `COCc1nc(C)c(-c2ccc(C)o2)c(O)c1C(=O)Nc1ccc(Oc2ccnc3cc(OC)c(OC)nc23)c(F)c1` [Compound 117, N-[4-[(6,7-Dimethoxy-1,5-naphthyridin-4-yl)oxy]-3-fluorophenyl]-4-hydroxy-2-(methoxymethyl)-6-methyl-5-(5-methylfuran-2-yl)pyridine-3-carboxamide], for which the IC50 on Met and on AXL was at most 100 nM each time.
`COc1cc2nccc(Oc3ccc(NC(=O)c4cnc(C)c(-c5cc(C)cs5)c4O)cc3F)c2nc1OC` [Compound 91, N-[4-[(6,7-Dimethoxy-1,5-naphthyridin-4-yl)oxy]-3-fluoro-phenyl]-4-hydroxy-6-methyl-5-(4-methyl-2-thienyl) pyridine-3-carboxamide]: the IC50 on Met and on AXL was at most 100 nM each time.
On to `COc1cc2nccc(Oc3ccc(NC(=O)c4c(C)n(C)c(C)c(-c5ccco5)c4=O)cc3F)c2nc1OC` [Compound 160, N-[4-[(6,7-Dimethoxy-1,5-naphthyridin-4-yl)oxy]-3-fluorophenyl]-5-(furan-2-yl)-1,2,6-trimethyl-4-oxopyridine-3-carboxamide], for which the IC50 at Met and against AXL was at most 100 nM throughout.
Consider `CCc1ccc(-c2c(C)ncc(C(=O)Nc3ccc(Oc4ccnc5cc(OC)c(OC)nc45)c(F)c3)c2O)o1` [Compound 153, N-[4-[(6,7-Dimethoxy-1,5-naphthyridin-4-yl)oxy]-3-fluorophenyl]-5-(5-ethylfuran-2-yl)-4-hydroxy-6-methylpyridine-3-carboxamide], for which the IC50 (usually the concentration at which inhibition is half-maximal) is 100 to 300 nM at Met and at most 100 nM against AXL.
The corresponding values for `COc1cc2nccc(Oc3ccc(NC(=O)c4cnc(C)c(-c5ccsc5)c4O)cc3F)c2nc1OC` [Compound 93, N-[4-[(6,7-Dimethoxy-1,5-naphthyridin-4-yl)oxy]-3-fluoro-phenyl]-4-hydroxy-6-methyl-5-(3-thienyl)pyridine-3-carboxamide] are at most 100 nM and at most 100 nM.
In the same order, the values of `COc1cnc2c(Oc3ccc(NC(=O)c4cnc(C)c(-c5ccoc5)c4O)cc3F)ccnc2c1` [Compound 99, N-[3-Fluoro-4-[(7-methoxy-1,5-naphthyridin-4-yl)oxy]phenyl]-5-(3-furyl)-4-hydroxy-6-methyl-pyridine-3-carboxamide] are at most 100 nM and at most 100 nM.
In the same order, the values of `COc1cc2nccc(Oc3ccc(NC(=O)c4c(C)n(C)c(C)c(-c5cccs5)c4=O)cc3F)c2nc1OC` [Compound 168, N-[4-[(6,7-Dimethoxy-1,5-naphthyridin-4-yl)oxy]-3-fluorophenyl]-1,2,6-trimethyl-4-oxo-5-thiophen-2-ylpyridine-3-carboxamide] are at most 100 nM and at most 100 nM.
As to `COc1cc2nccc(Oc3ccc(NC(=O)c4c(C)ncc(-c5sccc5C)c4O)cc3F)c2nc1OC` [Compound 126, N-[4-[(6,7-Dimethoxy-1,5-naphthyridin-4-yl)oxy]-3-fluorophenyl]-4-hydroxy-2-methyl-5-(3-methylthiophen-2-yl)pyridine-3-carboxamide], the IC50 at Met and at AXL was at most 100 nM each time.
As for `COc1cc2nccc(Oc3ccc(NC(=O)c4c(C)ncc(-c5ccc(C)o5)c4O)cc3F)c2nc1OC` [Compound 120, N-[4-[(6,7-Dimethoxy-1,5-naphthyridin-4-yl)oxy]-3-fluorophenyl]-4-hydroxy-2-methyl-5-(5-methylfuran-2-yl)pyridine-3-carboxamide], the IC50 on Met and on AXL was at most 100 nM in each case.
For `COc1cc2nccc(Oc3ccc(NC(=O)c4c(C)nc(C)c(-c5ccc(C)s5)c4O)cc3F)c2nc1OC` [Compound 111, N-[4-[(6,7-Dimethoxy-1,5-naphthyridin-4-yl)oxy]-3-fluoro-phenyl]-4-hydroxy-2,6-dimethyl-5-(5-methyl-2-thienyl)pyridine-3-carboxamide], the IC50 at Met and on AXL was at most 100 nM each time.
For `COc1ccc2nccc(Oc3ccc(NC(=O)c4cnc(C)c(-c5cccs5)c4O)cc3F)c2n1` [Compound 128, N-[3-Fluoro-4-[(6-methoxy-1,5-naphthyridin-4-yl)oxy]phenyl]-4-hydroxy-6-methyl-5-thiophen-2-ylpyridine-3-carboxamide], the concentration for half-maximal inhibition (IC50) at Met and on AXL was at most 100 nM in each case.
On to `COc1cc2nccc(Oc3ccc(NC(=O)c4cnc(C)c(-c5ccoc5)c4O)cc3F)c2nc1OC` [Compound 95, N-[4-[(6,7-Dimethoxy-1,5-naphthyridin-4-yl)oxy]-3-fluoro-phenyl]-5-(3-furyl)-4-hydroxy-6-methyl-pyridine-3-carboxamide], for which the IC50 at Met and on AXL was at most 100 nM throughout.
Turning to `COc1cc2nccc(Oc3ccc(NC(=O)c4cnc(C)c(-c5cccs5)c4O)cc3F)c2nc1OC` [Compound 90, N-[4-[(6,7-Dimethoxy-1,5-naphthyridin-4-yl)oxy]-3-fluoro-phenyl]-4-hydroxy-6-methyl-5-(2-thienyl)pyridine-3-carboxamide], the IC50 on Met and on AXL was at most 100 nM in each case.
As for `COc1cc2nccc(Oc3ccc(NC(=O)c4cnc(C)c(-c5cc(C(F)(F)F)nn5C)c4O)cc3F)c2nc1OC` [Compound 105], the IC50 was 100 to 300 nM on Met and at most 100 nM at AXL.
In the same order, the values of `COc1cc2nccc(Oc3ccc(NC(=O)c4c(C)nc(C)c(-c5sccc5C)c4O)cc3F)c2nc1OC` [Compound 139, N-[4-[(6,7-Dimethoxy-1,5-naphthyridin-4-yl)oxy]-3-fluorophenyl]-4-hydroxy-2,6-dimethyl-5-(3-methylthiophen-2-yl)pyridine-3-carboxamide] are at most 100 nM and at most 100 nM.
The corresponding values for `COc1cc2nccc(Oc3ccc(NC(=O)c4c(C)nc(C)c(-c5ccco5)c4O)cc3F)c2nc1OC` [Compound 135, N-[4-[(6,7-Dimethoxy-1,5-naphthyridin-4-yl)oxy]-3-fluorophenyl]-5-(furan-2-yl)-4-hydroxy-2,6-dimethylpyridine-3-carboxamide] are at most 100 nM and at most 100 nM.
In the same order, the values of `COc1cc2nccc(Oc3ccc(NC(=O)c4c(C)nc(C)c(-c5ccc(C6CC6)o5)c4O)cc3F)c2nc1OC` [Compound 155B, 5-(5-Cyclopropylfuran-2-yl)-N-[4-[(6,7-dimethoxy-1,5-naphthyridin-4-yl)oxy]-3-fluorophenyl]-4-hydroxy-2,6-dimethylpyridine-3-carboxamide] are at most 100 nM and at most 100 nM.
